In patent publication US20210122730A1, “GLUCOCORTICOID RECEPTOR MODULATORS” (ORIC Pharmaceuticals, Inc., priority 2017, published 2021):

Columns and labels:
CYP2C8 = molecular target: T1, CYP2C8 (Homo sapiens, UniProt P10632); test: CYP Inhibition Assay (CYP2C8, human liver microsomes, paclitaxel substrate); type: in vitro ADME; conditions: pH 7.4; pooled human liver microsomes 0.1 mg/mL, probe substrate paclitaxel
T1 construct: Pooled human microsomes were obtained from Sekisui XenoTech, KS; tissue Sekisui XenoTech, KS; host or cells: pooled human liver microsomes
T1 sequence (P10632 1-490): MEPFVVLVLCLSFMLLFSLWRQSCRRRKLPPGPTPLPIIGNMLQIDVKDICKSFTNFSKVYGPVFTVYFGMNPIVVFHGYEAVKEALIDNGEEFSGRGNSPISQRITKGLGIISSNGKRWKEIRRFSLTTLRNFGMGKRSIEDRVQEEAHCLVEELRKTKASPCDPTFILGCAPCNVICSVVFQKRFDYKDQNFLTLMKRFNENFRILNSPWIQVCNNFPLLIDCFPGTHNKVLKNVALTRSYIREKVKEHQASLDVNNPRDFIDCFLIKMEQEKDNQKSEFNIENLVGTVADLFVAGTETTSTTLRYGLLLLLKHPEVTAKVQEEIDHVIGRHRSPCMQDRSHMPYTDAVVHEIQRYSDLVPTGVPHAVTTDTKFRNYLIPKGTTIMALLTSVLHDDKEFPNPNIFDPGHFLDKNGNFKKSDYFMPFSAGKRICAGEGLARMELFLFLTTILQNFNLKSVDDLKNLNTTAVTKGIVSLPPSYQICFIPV
How it was run: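 Pooled human liver microsomes (0.1 mg/mL) in 50 mM potassium phosphate pH 7.4 with compound, started with 1 mM NADPH, 5 min at 37° C, duplicate.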

GR = molecular target: T2, GR (Homo sapiens, UniProt P04150); test: In Vitro GR Luciferase Reporter Assay (antagonist mode, CHO-K1-GR-MMTV-Luc reporter cells); type: cell-based; conditions: antagonist mode, 10 nM Dexamethasone
T2 construct: expressed in transfected cells; host or cells: CHO-K1
T2 sequence (P04150 1-777): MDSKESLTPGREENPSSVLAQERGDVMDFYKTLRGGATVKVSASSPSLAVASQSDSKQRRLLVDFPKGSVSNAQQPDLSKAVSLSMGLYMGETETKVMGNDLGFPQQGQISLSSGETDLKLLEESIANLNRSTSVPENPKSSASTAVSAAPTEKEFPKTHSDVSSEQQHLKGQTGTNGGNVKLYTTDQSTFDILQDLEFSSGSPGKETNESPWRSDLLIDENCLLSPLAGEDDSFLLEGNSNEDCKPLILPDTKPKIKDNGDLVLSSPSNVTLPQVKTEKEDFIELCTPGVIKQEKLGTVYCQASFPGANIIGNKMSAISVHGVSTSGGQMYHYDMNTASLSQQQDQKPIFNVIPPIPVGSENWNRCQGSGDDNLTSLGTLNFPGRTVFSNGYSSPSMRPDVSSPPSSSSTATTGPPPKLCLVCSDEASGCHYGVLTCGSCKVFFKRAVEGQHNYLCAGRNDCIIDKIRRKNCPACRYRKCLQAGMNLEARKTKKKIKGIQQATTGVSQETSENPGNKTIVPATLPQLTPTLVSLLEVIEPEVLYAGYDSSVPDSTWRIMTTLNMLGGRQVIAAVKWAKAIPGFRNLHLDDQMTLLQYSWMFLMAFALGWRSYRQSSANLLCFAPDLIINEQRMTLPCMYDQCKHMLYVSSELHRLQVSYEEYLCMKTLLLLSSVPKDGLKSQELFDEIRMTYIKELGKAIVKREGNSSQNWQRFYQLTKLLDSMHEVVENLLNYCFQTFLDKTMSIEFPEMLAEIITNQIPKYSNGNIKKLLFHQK
How it was run: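 CHO-K1-GR-MMTV-Luc cells in phenol red-free DMEM with 10% CSS, stimulated with 10 nM dexamethasone (final) and treated with 8-point 1:5 compound dilutions for about 18-24 h at 37° C. Luciferase measured by OneGlo luminescence; IC50 derived for inhibition of GR activity.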

inhibition at 5 min (CYP2C8) [%] | IC50 (GR) [nM] | Compound
75 to 90 | ≤ 100 | CC(C)N([C@H]1CCC2=Cc3c(cnn3-c3ccc(F)cc3)C[C@]2(C(=O)c2cc(C(F)(F)F)ccn2)C1)S(=O)(=O)c1ccc(F)cc1 [Example 210, 4-fluoro-N-((4aS,6S)-1-(4-fluorophenyl)-4a-(4-(trifluoromethyl)picolinoyl)-4,4a,5,6,7,8-hexahydro-1H-benzo[f]indazol-6-yl)-N-isopropylbenzenesulfonamide]
≤ 25 | ≤ 100 | CCN([C@H]1CCC2=Cc3c(cnn3-c3ccc(F)cc3)C[C@]2(C(=O)c2cc(C(F)(F)F)ccn2)C1)S(=O)(=O)c1cn(C)cn1 [Example 214, N-ethyl-N-((4aS,6S)-1-(4-fluorophenyl)-4a-(4-(trifluoromethyl)picolinoyl)-4,4a,5,6,7,8-hexahydro-1H-benzo[f]indazol-6-yl)-1-methyl-1H-imidazole-4-sulfonamide]
50 to 75 | ≤ 100 | Cn1cc(S(=O)(=O)N(C2CC2)[C@H]2CCC3=Cc4c(cnn4-c4ccc(F)cc4)C[C@]3(C(=O)c3cc(C(F)(F)F)ccn3)C2)nn1 [Example 222, N-cyclopropyl-N-((4aS,6S)-1-(4-fluorophenyl)-4a-(4-(trifluoromethyl)picolinoyl)-4,4a,5,6,7,8-hexahydro-1H-benzo[f]indazol-6-yl)-1-methyl-1H-1,2,3-triazole-4-sulfonamide]
25 to 50 | ≤ 100 | O=C(c1cc(C(F)(F)F)ccn1)[C@]12Cc3cnn(-c4ccc(F)cc4)c3C=C1CC[C@H](N(C1CC1)S(=O)(=O)c1ccc(Cl)nc1)C2 [Example 223, 6-chloro-N-cyclopropyl-N-((4aS,6S)-1-(4-fluorophenyl)-4a-(4-(trifluoromethyl)picolinoyl)-4,4a,5,6,7,8-hexahydro-1H-benzo[f]indazol-6-yl)pyridine-3-sulfonamide]
25 to 50 | ≤ 100 | Cn1ccc(S(=O)(=O)N(C2CC2)[C@H]2CCC3=Cc4c(cnn4-c4ccc(F)cc4)C[C@]3(C(=O)c3cc(F)ccn3)C2)n1 [Example 224, N-cyclopropyl-N-((4aS,6S)-1-(4-fluorophenyl)-4a-(4-fluoropicolinoyl)-4,4a,5,6,7,8-hexahydro-1H-benzo[f]indazol-6-yl)-1-methyl-1H-pyrazole-3-sulfonamide]
50 to 75 | ≤ 100 | Cn1cnc(S(=O)(=O)N(C2CCC2)[C@H]2CCC3=Cc4c(cnn4-c4ccc(F)cc4)C[C@]3(C(=O)c3cc(C(F)(F)F)ccn3)C2)c1 [Example 226, N-cyclobutyl-N-((4aS,6S)-1-(4-fluorophenyl)-4a-(4-(trifluoromethyl)picolinoyl)-4,4a,5,6,7,8-hexahydro-1H-benzo[f]indazol-6-yl)-1-methyl-1H-imidazole-4-sulfonamide]

The remaining lines, values behind:

Compound | inhibition at 5 min (CYP2C8) [%] | IC50 (GR) [nM]
Cn1ccc(S(=O)(=O)N(C2CCC2)[C@H]2CCC3=Cc4c(cnn4-c4ccc(F)cc4)C[C@]3(C(=O)c3cc(C(F)(F)F)ccn3)C2)n1 [Example 206, N-cyclobutyl-N-((4aS,6S)-1-(4-fluorophenyl)-4a-(4-(trifluoromethyl)picolinoyl)-4,4a,5,6,7,8-hexahydro-1H-benzo[f]indazol-6-yl)-1-methyl-1H-pyrazole-3-sulfonamide] | 25 to 50 | ≤ 100
CC(C)CN([C@H]1CCC2=Cc3c(cnn3-c3ccc(F)cc3)C[C@]2(C(=O)c2ncc(C(F)(F)F)s2)C1)S(=O)(=O)c1ccn(C)n1 [Example 212, N-((4aS,6S)-1-(4-fluorophenyl)-4a-(5-(trifluoromethyl)thiazole-2-carbonyl)-4,4a,5,6,7,8-hexahydro-1H-benzo[f]indazol-6-yl)-N-isobutyl-1-methyl-1H-pyrazole-3-sulfonamide] | 25 to 50 | ≤ 100
CC(C)CN([C@H]1CCC2=Cc3c(cnn3-c3ccc(F)cc3)C[C@]2(C(=O)c2cc(C(F)(F)F)ccn2)C1)S(=O)(=O)c1ccn(C)n1 [Example 215, N-((4aS,6S)-1-(4-fluorophenyl)-4a-(4-(trifluoromethyl)picolinoyl)-4,4a,5,6,7,8-hexahydro-1H-benzo[f]indazol-6-yl)-N-isobutyl-1-methyl-1H-pyrazole-3-sulfonamide] | 50 to 75 | ≤ 100
CCN([C@H]1CCC2=Cc3c(cnn3-c3ccc(F)cc3)C[C@]2(C(=O)c2ncc(C(F)(F)F)s2)C1)S(=O)(=O)c1cn(C)cn1 [Example 216, N-ethyl-N-((4aS,6S)-1-(4-fluorophenyl)-4a-(5-(trifluoromethyl)thiazole-2-carbonyl)-4,4a,5,6,7,8-hexahydro-1H-benzo[f]indazol-6-yl)-1-methyl-1H-imidazole-4-sulfonamide] | 25 to 50 | ≤ 100
Cn1cnc(S(=O)(=O)N(CC2CC2)[C@H]2CCC3=Cc4c(cnn4-c4ccc(F)cc4)C[C@]3(C(=O)c3ncc(C(F)(F)F)s3)C2)c1 [Example 217, N-(cyclopropylmethyl)-N-((4aS,6S)-1-(4-fluorophenyl)-4a-(5-(trifluoromethyl)thiazole-2-carbonyl)-4,4a,5,6,7,8-hexahydro-1H-benzo[f]indazol-6-yl)-1-methyl-1H-imidazole-4-sulfonamide] | 25 to 50 | ≤ 100
Cn1cc(S(=O)(=O)N(C2CC2)[C@H]2CCC3=Cc4c(cnn4-c4ccc(F)cc4)C[C@]3(C(=O)c3ncc(C(F)(F)F)s3)C2)nn1 [Example 219, N-cyclopropyl-N-((4aS,6S)-1-(4-fluorophenyl)-4a-(5 (trifluoromethyl)thiazole-2-carbonyl)-4,4a,5,6,7,8-hexahydro-1H-benzo[f]indazol-6-yl)-1-methyl-1H-1,2,3-triazole-4-sulfonamide] | 25 to 50 | ≤ 100
CC(C)N([C@H]1CCC2=Cc3c(cnn3-c3ccc(F)cc3)C[C@]2(C(=O)c2cc(C(F)(F)F)ccn2)C1)S(=O)(=O)c1cn(C)cn1 [Example 221, N-((4aS,6S)-1-(4-fluorophenyl)-4a-(4-(trifluoromethyl)picolinoyl)-4,4a,5,6,7,8-hexahydro-1H-benzo[f]indazol-6-yl)-N-isopropyl-1-methyl-1H-imidazole-4-sulfonamide] | 50 to 75 | ≤ 100
Cn1ccc(S(=O)(=O)N(C2CC2)[C@H]2CCC3=Cc4c(cnn4-c4ccc(F)cc4)C[C@]3(C(=O)c3cc(Cl)ccn3)C2)n1 [Example 225, N-((4aS,6S)-4a-(4-chloropicolinoyl)-1-(4-fluorophenyl)-4,4a,5,6,7,8-hexahydro-1H-benzo[f]indazol-6-yl)-N-cyclopropyl-1-methyl-1H-pyrazole-3-sulfonamide] | 50 to 75 | ≤ 100
O=C(c1cc(F)ccn1)[C@]12Cc3cnn(-c4ccc(F)cc4)c3C=C1CC[C@H](N(C1CC1)S(=O)(=O)c1ccc(F)cc1)C2 [Example 228, N-cyclopropyl-4-fluoro-N-((4aS,6S)-1-(4-fluorophenyl)-4a-(4-fluoropicolinoyl)-4,4a,5,6,7,8-hexahydro-1H-benzo[f]indazol-6-yl)benzenesulfonamide] | 50 to 75 | ≤ 100
Cn1cc(S(=O)(=O)N(CC2CC2)[C@H]2CCC3=Cc4c(cnn4-c4ccc(F)cc4)C[C@]3(C(=O)c3cc(C(F)(F)F)ccn3)C2)nn1 [Example 229, N-(cyclopropylmethyl)-N-((4aS,6S)-1-(4-fluorophenyl)-4a-(4-(trifluoromethyl)picolinoyl)-4,4a,5,6,7,8-hexahydro-1H-benzo[f]indazol-6-yl)-1-methyl-1H-1,2,3-triazole-4-sulfonamide] | 50 to 75 | ≤ 100
